Values after ≈ are worked out from the molar mass of the structure shown.
Conditions: buffer; pH 7.4; 200.0 µM

Structure (SMILES)	solubility kinetic
COc1ccc(CCNC(=O)CCc2ccc(OC)cc2)cc1	11.4 µg/mL (≈ 36.4 µM)
Cc1nnc(NC(=O)CCNC(=O)c2ccccc2Cl)s1	> 48.7 µg/mL
Cc1cc(C)c2cc(C(=O)N3CCC(N4CCCCC4)CC3)[nH]c2c1	> 50.9 µg/mL
C/C(N)=C(/C#N)C(=O)COC(=O)c1ccc(OCC2CCCO2)cc1 (configuration not stated)	51.5 µg/mL (≈ 150 µM)
OCCC1CN(Cc2ccon2)CCN1Cc1ccc(F)c(F)c1 (configuration not stated)	40.7 µg/mL (≈ 121 µM)
O=C(CN1CCN(Cc2ccc(F)cc2)C1=O)NC1CCCC1	> 47.9 µg/mL
O=C(Cc1ccccc1Cl)NC1(O)C(=O)c2ccccc2C1=O	> 49.5 µg/mL
Cc1nnc(SCC(=O)NCC(=O)Nc2ccc(F)c(F)c2F)n1N	> 56.2 µg/mL
COc1ccc2oc(C(=O)NCC3CCCO3)c(C)c2c1 (configuration not stated)	39.8 µg/mL (≈ 138 µM)
Cc1cccc(NC(=O)CN2C(=O)NC3(CCCCCCC3)C2=O)c1C	49 µg/mL (≈ 137 µM)
CCOCCCNC(c1ccccc1)c1ccncc1 (configuration not stated)	38 µg/mL (≈ 141 µM)
CC1CN(C(=O)c2ccccc2NS(=O)(=O)c2ccc(Cl)cc2)CC(C)O1 (configuration not stated)	> 61.3 µg/mL
Cc1ccc(C)c(N2CC(C(=O)Nc3cc(C)on3)CC2=O)c1 (configuration not stated)	40.3 µg/mL (≈ 129 µM)
CC(=O)Nc1ccc(NC(=O)Nc2cc(C)cc(C)c2)cc1	0.8 µg/mL (≈ 2.69 µM)
COc1ccccc1N1CCN(CCN2C(=O)C3CCCN3C2=O)CC1 (configuration not stated)	40.7 µg/mL (≈ 114 µM)
O=C(COC(=O)c1ccc(Br)o1)NCc1ccccc1Cl	9 µg/mL (≈ 24.2 µM)
COc1ccccc1NC(=O)COc1ccc2c(c1)OCO2	2.5 µg/mL (≈ 8.3 µM)
C[C@@H](C(=O)N1CCN(c2ccccc2)CC1)N1C(=O)C2CC=CCC2C1=O (some centres not stated)	> 55.1 µg/mL
O=C1c2ccccc2C(=O)N1CCOc1ccc(F)cc1	4 µg/mL (≈ 14 µM)
NC1=NC(c2ccccc2)=NC1(NC(=O)c1ccccc1)C(Cl)Cl (configuration not stated)	44.4 µg/mL (≈ 123 µM)
O=C(NCc1ccccc1)NCC12CC3CC(CC(C3)C1)C2	1.3 µg/mL (≈ 4.36 µM)
CCN(C(=O)CSc1cccc[n+]1[O-])c1ccccc1	> 43.3 µg/mL
CCOC(=O)c1sc(=NC(=O)/C=C/c2ccccc2)n(C)c1C	< 0.4 µg/mL
C=CCn1c(O)c(N=O)c2ccccc21	> 30.3 µg/mL
Cc1cc(C)nc(NC(=O)c2ccc(Br)cc2)n1	> 45.9 µg/mL

Structure (SMILES)	solubility kinetic
O=C(Nc1ccc(Cl)cc1)OC1CN2CCC1CC2 (configuration not stated)	40.5 µg/mL (≈ 144 µM)
C=CCSc1nc(N)c2c3c(sc2n1)CN(C)CC3	43.5 µg/mL (≈ 149 µM)
COc1cccc(NC(=O)c2ccc3nc(C)sc3c2)c1	38.7 µg/mL (≈ 130 µM)
CCN(CC)c1ccc2c(C)c(Cl)c(=O)oc2c1	6.3 µg/mL (≈ 23.7 µM)
O=C(C(Cl)Cl)N1CCN(Cc2ccc3c(c2)OCO3)CC1	42.6 µg/mL (≈ 129 µM)
COc1cc(NC(=O)c2cccnc2SC)cc(OC)c1	> 45.7 µg/mL
C=CCc1cc(Cl)ccc1OCCn1ccnc1.O=C(O)C(=O)O	39.5 µg/mL
O=C(c1ccc(F)cc1)N(Cc1ccco1)C1CCS(=O)(=O)C1 (configuration not stated)	> 50.6 µg/mL
O=C(Cc1ccc(F)cc1)N1CCOCC1	> 33.5 µg/mL
Cc1cnc(C(=O)Nc2cc(F)ccc2C)cn1	15.6 µg/mL (≈ 63.6 µM)
Cc1ccc(CNS(=O)(=O)c2ccc(C(F)(F)F)cc2)n1C	30.6 µg/mL (≈ 92.1 µM)
O=C(Nc1ccc(F)cc1)C1CC2CCC1C2 (configuration not stated)	25.3 µg/mL (≈ 108 µM)
CCCS(=O)(=O)N1CCCC(C(=O)Oc2ccc(OC)cc2)C1 (configuration not stated)	40.5 µg/mL (≈ 119 µM)
CCC1CN(C(=O)Nc2cccc(C)c2)c2cc(C)ccc2O1 (configuration not stated)	7.5 µg/mL (≈ 24.2 µM)
CC(=O)/C(C#N)=C1\NC(=O)C(Cc2ccc(F)cc2)S1 (configuration not stated)	> 43.5 µg/mL
O=C(O)C1Cc2[nH]cnc2C(c2cccc([N+](=O)[O-])c2)N1 (configuration not stated)	43.1 µg/mL (≈ 150 µM)
O=C(Nc1cccnc1)C12CC3CC(CC(C3)C1)C2	> 38.5 µg/mL
C#CCn1c2ccccc2c2nc3ccccc3nc21	< 0.2 µg/mL
CCOc1ccc(CNCCCSc2ncccn2)cc1	> 45.5 µg/mL
O=c1nc2n(c3ncccc13)CCCCC2	> 32.3 µg/mL
COc1ccc(NC(=O)[C@@H]2CCCN2S(=O)(=O)c2ccc(Cl)cc2)cc1	> 59.2 µg/mL
CCOc1ccccc1Nc1ccc(C(=O)O)cc1N	37.6 µg/mL (≈ 138 µM)
CC1=C([N+](=O)[O-])C(c2ccc(Cl)cc2)NC(=O)N1 (configuration not stated)	> 40.2 µg/mL
CCCCNC(=O)N1CCN(c2ccnc3cc(Cl)ccc23)CC1	> 52 µg/mL
Cl.NCCNC(=O)c1c(O)c2cccc3c2n(c1=O)CCC3	48.3 µg/mL

Structure (SMILES)	solubility kinetic
O=C(Nc1nnc2n1CCS2)c1ccco1	> 35.4 µg/mL
Cc1ccnc(Cc2ccccc2)n1	18.5 µg/mL (≈ 100 µM)
O=C(Nc1cccc(Cl)c1)C1CCCN(c2cnccn2)C1 (configuration not stated)	> 47.5 µg/mL
CC1CCCN(Cc2csc(N)n2)C1 (configuration not stated)	> 31.7 µg/mL
Cc1cc(O)ccc1NS(=O)(=O)c1ccc2c3c(cccc13)C(=O)N2	48.8 µg/mL (≈ 138 µM)
Oc1ccc(Nc2nc(-c3ccccc3O)nc3ccccc23)cc1	2.1 µg/mL (≈ 6.38 µM)
Cc1csc(SCC(=O)NC(C)c2ccc(F)cc2)n1 (configuration not stated)	38.8 µg/mL (≈ 125 µM)
CC(C(=O)NC1CCCCC1)N1C(=O)c2cccc3cccc1c23 (configuration not stated)	3.5 µg/mL (≈ 10.9 µM)
COc1ccc(NS(=O)(=O)c2ccc3oc(=O)ccc3c2)cc1	> 49.7 µg/mL
COc1ccc(CNC(=O)CCCSc2ccccc2)cc1	2.4 µg/mL (≈ 7.61 µM)
Cc1ccc(SC(C)C(=O)NC2CC2)cc1 (configuration not stated)	> 35.3 µg/mL
CCOc1ccc(S(=O)(=O)N2CCN(C(=O)c3cc4ccccc4o3)CC2)cc1	6 µg/mL (≈ 14.5 µM)
O=C(NC1CCC(O)CC1)c1cc(Cl)c2c(c1)OCCO2 (configuration not stated)	35.6 µg/mL (≈ 114 µM)
COc1cc(/C=C2\SC(N)=NC2=O)cc(OC)c1	3.8 µg/mL (≈ 14.4 µM)
CNC(=O)CC1C(=O)N(C)C(=S)N1NC(=O)c1ccccc1 (configuration not stated)	> 48.1 µg/mL
O=C(N/C(=C/c1ccco1)C(=O)N1CCOCC1)c1cccs1	> 49.9 µg/mL
O=C(CCC(=O)c1ccccc1)NCCOc1ccccc1	> 44.6 µg/mL
CCCCN(C(=O)CN(C)CC(=O)Nc1cccc(OC)c1)c1c(N)n(CCCC)c(=O)[nH]c1=O	> 73.3 µg/mL
CN(C)/C=C1\C(=O)Oc2ccccc2C1=O	32.4 µg/mL (≈ 149 µM)
Cc1cccc(C)c1NC(=O)CNC(=O)c1c(C)nn(C)c1Cl	> 50.2 µg/mL
O=C(Nc1ccc(F)c(Cl)c1)C1CC2CCC1C2 (configuration not stated)	2.8 µg/mL (≈ 10.5 µM)
CCNc1nc(NC(C)(C)C)nc(SC)n1	35.9 µg/mL (≈ 149 µM)
COc1ccc(S(=O)(=O)NC2CCCC2)c(OC)c1	> 42.8 µg/mL
Cc1cccc(C(=O)OCC(=O)N2CC(=O)Nc3ccccc32)c1C	4.2 µg/mL (≈ 12.4 µM)
NC(=O)NC(=O)CN1c2cccc3cccc(c23)S1(=O)=O	3.7 µg/mL (≈ 12.1 µM)

Structure (SMILES)	solubility kinetic
CCc1cccc(C)c1N1C(=O)CN(Cc2ccccc2)C1=S	12.1 µg/mL (≈ 37.3 µM)
CC1CCN(c2nc3c(cc2C#N)COC(C)(C)C3)CC1	16 µg/mL (≈ 56.1 µM)
CC(C)(C)NC(=O)NC12CC3CC(CC(C3)C1)C2	2.1 µg/mL (≈ 8.39 µM)
Cc1cc(C(=O)NC(C)C2CC2)c(Cl)cc1Cl (configuration not stated)	4.7 µg/mL (≈ 17.3 µM)
COc1ccccc1NC(=O)CCN1C(=O)C2CC=CCC2C1=O (configuration not stated)	> 49.3 µg/mL
COC(=O)c1ccccc1N=Cc1c(O)[nH]c(=S)[nH]c1=O	6.1 µg/mL (≈ 20 µM)
CC(C)c1ccc[n+](-c2nc([O-])sc2C=O)c1	27.4 µg/mL (≈ 110 µM)
CCOc1ccc(OCC(=O)OC(C)C(=O)NC2CCCC2)cc1 (configuration not stated)	> 50.3 µg/mL
Cc1cccc(C(=O)OCC(=O)NC(C)CCc2ccccc2)c1O (configuration not stated)	< 0.7 µg/mL
Cc1ccc(NC(=O)CCn2cnc3ccccc3c2=O)c(C)c1	13.7 µg/mL (≈ 42.6 µM)
O=Cc1cccnc1SCc1ccccc1	15.5 µg/mL (≈ 67.6 µM)
COc1ccc(CC(=O)Nc2ccc(OC(C)=O)cc2C(=O)O)cc1	> 51.5 µg/mL
Cc1nc2ccc(NC(=O)C3CCCCC3)cc2s1	13.2 µg/mL (≈ 48.1 µM)
CCCCC(=O)Nc1cc(Cl)ccc1C(=O)O	> 38.4 µg/mL
Cc1cc(NS(=O)(=O)c2ccc(NC(=O)/C=C/c3ccccc3)cc2)nc(C)n1	> 61.3 µg/mL
Cl.Nc1ccc(CCN2CCCC2)cc1	34.7 µg/mL
O=C(CCC1CCCCC1)NC1CCCCC1	16.6 µg/mL (≈ 69.9 µM)
COc1ccc(/C=C/C(=O)OCC(=O)NC2CCCC(C)C2C)c(OC)c1 (configuration not stated)	5 µg/mL (≈ 13.3 µM)
CC1CCN(CCC(=O)Nc2nccs2)CC1	33.7 µg/mL (≈ 133 µM)
COC(=O)C(NC(C)=O)(Nc1ccc(C)cn1)C(F)(F)F (configuration not stated)	> 45.8 µg/mL
O=C(c1ccc(F)cc1)C(C(=O)N1CCCCC1)n1ccccc1=O (configuration not stated)	> 51.4 µg/mL
O=C(NCc1cc2ccccc2[nH]1)c1ccccc1F	> 40.2 µg/mL
Cc1ccccc1CSCC(=O)Nc1ccccc1F	27.9 µg/mL (≈ 96.4 µM)
N#Cc1ccc(C(=O)N2CCN(C(=O)C3CCCO3)CC2)cc1 (configuration not stated)	> 47 µg/mL
Cc1ccc(NC(=O)c2ccc(Oc3ncccn3)cc2)cc1	5 µg/mL (≈ 16.4 µM)

Structure (SMILES)	solubility kinetic
O=S(=O)(c1ccccc1)N1CCN(Cc2ccccc2)CC1	0.5 µg/mL (≈ 1.58 µM)
COc1ccc(S(=O)(=O)Nc2ccc(Cl)cn2)cc1	14.4 µg/mL (≈ 48.2 µM)
Cc1cc(OCC(=O)Nc2ccncc2)cc(C)c1Cl	2.9 µg/mL (≈ 9.97 µM)
CCOc1ncccc1C(=O)OCC(=O)c1ccc(Br)s1	> 55.5 µg/mL
CCOC(=O)c1c(-c2ccc(OC)cc2)cn2ccccc12	< 0.6 µg/mL
COc1ccc(C(=O)Nc2ccncc2)cc1[N+](=O)[O-]	36 µg/mL (≈ 132 µM)
Cc1cc(O)c(C(=O)/C=C/c2cccc([N+](=O)[O-])c2)c(=O)o1	> 45.2 µg/mL
N#Cc1cccc(NC(=O)CN2CCN(Cc3ccccc3)CC2)c1	49.8 µg/mL (≈ 149 µM)
COc1nc(OCC#N)nc(N2CCCCC2)n1	31.6 µg/mL (≈ 127 µM)
O=C(CS(=O)CC(=O)NC12CC3CC(CC(C3)C1)C2)Nc1ccc(F)cc1 (configuration not stated)	16.2 µg/mL (≈ 41.3 µM)
COc1nc(-c2ccccc2)nc(C)c1CC(=O)O	> 38.7 µg/mL
CCOc1ccc(NC(=S)NCc2ccc3[nH]c(C)cc3c2)cc1	11.4 µg/mL (≈ 33.6 µM)
Nc1ccc(S(=O)(=O)Nc2ccc(C(=O)c3ccccc3)cc2)cc1	9.4 µg/mL (≈ 26.7 µM)
Cc1cc(C)c(C#N)c(Nc2ccccc2F)n1	5.1 µg/mL (≈ 21.1 µM)
Cc1ccc(C)c(NC(=S)Nc2cccnc2)c1	> 38.6 µg/mL
CC(=O)c1cccc(NC(=O)c2cccc(NC(=O)c3ccco3)c2)c1	< 0.4 µg/mL
CCOC(=O)CN1C(=O)C(=O)N(Cc2ccccc2F)C1=O	> 46.2 µg/mL
Nc1nc2c(s1)COc1ccccc1-2	> 30.6 µg/mL
CN1C(=S)SC(/[N+]([O-])=C/c2c(F)cccc2Cl)C1(C)C (configuration not stated)	> 49.9 µg/mL
Cc1ccc(CC2CC(=O)N(c3cc(C)ccc3C)C2=O)cc1 (configuration not stated)	33.9 µg/mL (≈ 110 µM)
COc1ccccc1NC(=O)NC1CCCc2ccccc21 (configuration not stated)	0.8 µg/mL (≈ 2.7 µM)
CCn1c(CCc2ccccc2)nnc1SCC(N)=O	> 43.6 µg/mL
